Test system: human CRHR1
Experiment: CRH-induced luciferase reporter blocking in CHO-CRE-hCRHR1 cells
Format: cell-based
Conditions: in words
Experimental: To generate a CHO-CRE-Luciferase Reporter stable cell line, a mixture of 2 million CHO-K1 cells with 10 μg of pGL4.29/luc2P/CRE/Hygro plasmid in 100 μl of Ingenio solution was transferred into electroporation cuvettes and subjected to 1 or 2 pulses using an Electro Cell Manipulator (950 uF and 120V). The processed cells were transferred into a 6-well plate with 2 mL of Dulbecco's Modified Eagle's Medium (DMEM)/F12 with 10% fetal bovine serum (FBS). After 24 hours, selection antibiotic hygromycin at 500 μg/ml was added to the cells. […] Using matrix dilution, the pool of CHO-CRE cells was subcloned into 96-well plates. Individual stable clones were harvested when selected colonies became obvious. Positive clones were validated using a series of diluted forskolin. Validated positive clones were frozen for the future use.
To create CHO-CRE-hCRHR1,-hCRHR2,-mCRHR1, and -mCRHR2 reporter cell lines, pcDNA3.1-hCRHR1,-hCRHR2,-mCRHR1, and -mCRHR2 were introduced into CHO-CRE cells established above by electroporation as described above. Selection antibiotics hygromycin at 500 μg/ml and G418 at 1,000 μg/ml were employed. […]
50 μl of 4× serially diluted antibodies was added (8 points, ¼ diluted by growth medium) to plates containing CHO-CRE-hCRHR1 cells, and 50 μl of 4×CRH (4× is 2 nM, final is 0.5 nM) was added. […] Plates were read in a luciferase plate reader (En Vision, PerkinElmer).

CCCCN(CC)c1nc(C)nc2c1c(C)c(C)n2-c1c(C)cc(C)cc1C [Antalarmin, N-butyl-N-ethyl-(2,5,6-trimethyl-7-(2,4,6-trimethylphenyl)-7H-pyrrolo (2,3-d)pyrimidin-4-yl)amine, reference compound]
blocking activity in human CRHR1 luciferase reporter assay (CRH-mediated luciferase expression): blocked

From patent publication US20250197490A1, “ANTI-CORTICOTROPIN-RELEASING HORMONE ANTIBODIES AND USE IN CONGENITAL ADRENAL HYPERPLASIA” (HBM ALPHA THERAPEUTICS, INC., priority 2021, published 2025)
